These are literature values, as cited in US6083980A, “Furanyl, tetracyclic triterpene derivatives with immunosuppressant activity” (Merck & Co., Inc., priority 1998, dated 2000).

The subject of the series is Kv 1.3 channels (CHO cells transfected with Kv 1.3 channels). The note with it: stated for the reference blocker used to establish the efflux window.

The term IC50 denotes the concentration at which inhibition is half-maximal. As to “margatoxin (TIINVKCTSPKQCLPPCKAQFGQSAGAKCMNGKCKCYPH; UniProt P40755 1-39, looked up)”, the IC50 is 0.1 nM.
